Literature values in patent US20250231185A1, “Coronavirus T Cell Epitopes, Megapools and Uses Thereof” (La Jolla Institute for Immunology, priority 2021, published 2025).
Where two headings read alike, the source gives them in different places.

Tested on: CD8+ T cells
Settings: cited from earlier work
[1] = T cell type (CD4 or CD8) recognizing the SARS-CoV-2 epitope
[2] = CD8R (D) megapool epitopes, dominant = recognized by 3 or more donors/different studies
[3] = SARS-CoV-2 Ag S, T cell type recognizing the epitope
[4] = CD8RE megapool peptides (non-spike SARS-CoV-2 antigens), dominant epitope Yes/No
[5] = T cell subset (CD4 or CD8) recognizing the SARS-CoV-2-derived epitope
[6] = SARS-CoV-2-derived CD8 epitopes, dominant = recognized by 3 or more donors/different studies

In the case of 932 (TLKEILVTY) [compound 932], the Restriction [1] is given as “CD8”.

For 900 (TYKNTCDGTTF) [compound 900], the Restriction [1] is given as “CD8”.

For 1705 (MEVTPSGTWL) [compound 1705], the Dominant [2] is listed as “Yes (more dominant epitopes are defined by being recognized by 3 or more donors/different studies)”.

For 1331 (TPCSFGGVSV) [compound 1331], the Restriction [3] is given as “CD8”.

In the case of 3036 (FVRATATIPI) [compound 3036], the Dominant [4] is given as “Yes (more dominant epitopes are defined by being recognized by 3 or more donors/different studies)”.

For 656 (KPHNSHEGKTF) [compound 656], the Restriction [5] is listed as “CD8”.

For 2979 (IEYPIIGDEL) [compound 2979], the Dominant [4] is listed as “Yes (more dominant epitopes are defined by being recognized by 3 or more donors/different studies)”.

For 1769 (ILFTRFFYV) [compound 1769], the Dominant [2] is listed as “Yes (more dominant epitopes are defined by being recognized by 3 or more donors/different studies)”.

In the case of 1782 (VLAWLYAAV) [compound 1782], the Dominant [2] is listed as “Yes (more dominant epitopes are defined by being recognized by 3 or more donors/different studies)”.

For 985 (LRIMASLVL) [compound 985], the Restriction [1] is listed as “CD8”.

In the case of 511 (GTRNPANNA) [compound 511], the Restriction [5] is listed as “CD8”.

For 1011 (YADVFHLYL) [compound 1011], the Restriction [1] is given as “CD8”.

For 573 (ITILDGISQY) [compound 573], the Restriction [5] is listed as “CD8”.

For 1676 (SELVIGAVIL) [compound 1676], the Dominant [2] is given as “Yes (more dominant epitopes are defined by being recognized by 3 or more donors/different studies)”.

For 2999 (TTDPSFLGRY) [compound 2999], the Dominant [4] is listed as “Yes (more dominant epitopes are defined by being recognized by 3 or more donors/different studies)”.

For 996 (YAYLRKHF) [compound 996], the Restriction [1] is listed as “CD8”.

In the case of 1448 (DSFKEELDKY) [compound 1448], the Restriction [3] is given as “CD8”.

In the case of 523 (KPRQKRTAT) [compound 523], the Dominant [6] is listed as “Yes (more dominant epitopes are defined by being recognized by 3 or more donors/different studies)” and the Restriction [5] is listed as “CD8”.

In the case of 644 (YYTSNPTTF) [compound 644], the Restriction [5] is listed as “CD8”.

In the case of 929 (VPHISRQRL) [compound 929], the Restriction [1] is listed as “CD8”.

For 3025 (SEFSSLPSY) [compound 3025], the Dominant [4] is listed as “Yes (more dominant epitopes are defined by being recognized by 3 or more donors/different studies)”.

In the case of 1816 (IQYIDIGNY) [compound 1816], the Dominant [2] is given as “Yes (more dominant epitopes are defined by being recognized by 3 or more donors/different studies)”.

For 1381 (LADAGFIKQY) [compound 1381], the Restriction [3] is given as “CD8”.

For 687 (CTEIDPKLDNY) [compound 687], the Dominant [6] is listed as “Yes (more dominant epitopes are defined by being recognized by 3 or more donors/different studies)” and the Restriction [5] is listed as “CD8”.

In the case of 1412 (ITGRLQSLQTY) [compound 1412], the Restriction [3] is given as “CD8”.

For 1802 (IPIQASLPF) [compound 1802], the Dominant [2] is given as “Yes (more dominant epitopes are defined by being recognized by 3 or more donors/different studies)”.

For 990 (TSSGDATTAY) [compound 990], the Restriction [1] is listed as “CD8”.

For 660 (HTTDPSFLGRY) [compound 660], the Dominant [6] is listed as “Yes (more dominant epitopes are defined by being recognized by 3 or more donors/different studies)” and the Restriction [5] is listed as “CD8”.

In the case of 1704 (MEVTPSGTW) [compound 1704], the Dominant [2] is given as “Yes (more dominant epitopes are defined by being recognized by 3 or more donors/different studies)”.

In the case of 1402 (ALNTLVKQL) [compound 1402], the Restriction [3] is listed as “CD8”.

In the case of 678 (SAPPAQYEL) [compound 678], the Dominant [6] is given as “Yes (more dominant epitopes are defined by being recognized by 3 or more donors/different studies)” and the Restriction [5] is given as “CD8”.

For 2941 (ILLNKHIDA) [compound 2941], the Dominant [4] is listed as “Yes (more dominant epitopes are defined by being recognized by 3 or more donors/different studies)”.

In the case of 2997 (PTDNYITTY) [compound 2997], the Dominant [4] is listed as “Yes (more dominant epitopes are defined by being recognized by 3 or more donors/different studies)”.

For 574 (RLIDAMMFT) [compound 574], the Restriction [5] is listed as “CD8”.

For 1388 (TDEMIAQY) [compound 1388], the Restriction [3] is listed as “CD8”.

In the case of 2914 (ATSRTLSYYK) [compound 2914], the Dominant [4] is given as “Yes (more dominant epitopes are defined by being recognized by 3 or more donors/different studies)”.

In the case of 3021 (MPASWVMRI) [compound 3021], the Dominant [4] is listed as “Yes (more dominant epitopes are defined by being recognized by 3 or more donors/different studies)”.

In the case of 1694 (LALLLLDRL) [compound 1694], the Dominant [2] is given as “Yes (more dominant epitopes are defined by being recognized by 3 or more donors/different studies)”.

For 562 (VPHVGEIPV) [compound 562], the Restriction [5] is given as “CD8”.

For 954 (NLHSSRLSF) [compound 954], the Restriction [1] is given as “CD8”.

For 1434 (VTYVPAQEK) [compound 1434], the Restriction [3] is listed as “CD8”.

In the case of 1679 (ATSRTLSYYK) [compound 1679], the Dominant [2] is given as “Yes (more dominant epitopes are defined by being recognized by 3 or more donors/different studies)”.

In the case of 1672 (TLACFVLAAV) [compound 1672], the Dominant [2] is listed as “Yes (more dominant epitopes are defined by being recognized by 3 or more donors/different studies)”.

In the case of 1767 (NYMPYFFTL) [compound 1767], the Dominant [2] is listed as “Yes (more dominant epitopes are defined by being recognized by 3 or more donors/different studies)”.

In the case of 696 (FADDLNQLTGY) [compound 696], the Dominant [6] is listed as “Yes (more dominant epitopes are defined by being recognized by 3 or more donors/different studies)” and the Restriction [5] is listed as “CD8”.

In the case of 1062 (FTDGVCLFW) [compound 1062], the Restriction [1] is given as “CD8”.

For 1079 (FIERYKLEGY) [compound 1079], the Restriction [1] is listed as “CD8”.

For 1348 (SPRRARSV) [compound 1348], the Restriction [3] is given as “CD8”.

In the case of 1419 (SKRVDFCGKGY) [compound 1419], the Restriction [3] is given as “CD8”.

For 1021 (QLYLGGMSYY) [compound 1021], the Restriction [1] is listed as “CD8”.

In the case of 571 (ILSPLYAFA) [compound 571], the Restriction [5] is given as “CD8”.

For 3017 (VLAWLYAAV) [compound 3017], the Dominant [4] is given as “Yes (more dominant epitopes are defined by being recognized by 3 or more donors/different studies)”.

In the case of 1716 (LLMPILTLT) [compound 1716], the Dominant [2] is given as “Yes (more dominant epitopes are defined by being recognized by 3 or more donors/different studies)”.

For 921 (YLASGGQPI) [compound 921], the Restriction [1] is given as “CD8”.

In the case of 672 (ARAGEAANF) [compound 672], the Restriction [5] is given as “CD8”.

In the case of 942 (KPYIKWDLL) [compound 942], the Restriction [1] is listed as “CD8”.

For 1739 (IVDTVSALV) [compound 1739], the Dominant [2] is listed as “Yes (more dominant epitopes are defined by being recognized by 3 or more donors/different studies)”.

In the case of 2990 (KMQRMLLEK) [compound 2990], the Dominant [4] is given as “Yes (more dominant epitopes are defined by being recognized by 3 or more donors/different studies)”.

For 541 (MEVTPSGTW) [compound 541], the Dominant [6] is listed as “Yes (more dominant epitopes are defined by being recognized by 3 or more donors/different studies)” and the Restriction [5] is listed as “CD8”.

In the case of HTTDPSFLGRY [nsp3 818-828], the dominance as reported (HLA-A*01:01 epitopes overlapping TTDPSFLGRY, Saini et al.) is listed as “particularly dominant”.

For 638 (VVDYGARFY) [compound 638], the Restriction [5] is given as “CD8”.

In the case of 549 (AYKTFPPTEPK) [compound 549], the Dominant [6] is given as “Yes (more dominant epitopes are defined by being recognized by 3 or more donors/different studies)” and the Restriction [5] is given as “CD8”.

In the case of 2985 (NLWNTFTRL) [compound 2985], the Dominant [4] is listed as “Yes (more dominant epitopes are defined by being recognized by 3 or more donors/different studies)”.

For 547 (ILLNKHIDA) [compound 547], the Dominant [6] is listed as “Yes (more dominant epitopes are defined by being recognized by 3 or more donors/different studies)” and the Restriction [5] is listed as “CD8”.

For 1801 (FVRATATIPI) [compound 1801], the Dominant [2] is given as “Yes (more dominant epitopes are defined by being recognized by 3 or more donors/different studies)”.

In the case of 1341 (STGSNVFQTR) [compound 1341], the Restriction [3] is listed as “CD8”.

For 1750 (NLWNTFTRL) [compound 1750], the Dominant [2] is given as “Yes (more dominant epitopes are defined by being recognized by 3 or more donors/different studies)”.

For 1751 (KVDGVDVEL) [compound 1751], the Dominant [2] is listed as “Yes (more dominant epitopes are defined by being recognized by 3 or more donors/different studies)”.

For 1675 (SMWSFNPET) [compound 1675], the Dominant [2] is given as “Yes (more dominant epitopes are defined by being recognized by 3 or more donors/different studies)”.

For 2932 (QQQQGQTVTK) [compound 2932], the Dominant [4] is given as “Yes (more dominant epitopes are defined by being recognized by 3 or more donors/different studies)”.

In the case of 576 (TVYEKLKPV) [compound 576], the Restriction [5] is listed as “CD8”.

For 513 (NPANNAAIVL) [compound 513], the Dominant [6] is listed as “Yes (more dominant epitopes are defined by being recognized by 3 or more donors/different studies)” and the Restriction [5] is listed as “CD8”.

For 960 (AISDYDYYR) [compound 960], the Restriction [1] is given as “CD8”.

In the case of 600 (LEMELTPVV) [compound 600], the Restriction [5] is given as “CD8”.

For 1678 (ATSRTLSYY) [compound 1678], the Dominant [2] is given as “Yes (more dominant epitopes are defined by being recognized by 3 or more donors/different studies)”.

For 1771 (QLMCQPILLL) [compound 1771], the Dominant [2] is listed as “Yes (more dominant epitopes are defined by being recognized by 3 or more donors/different studies)”.

For 3026 (NTCDGTTFTY) [compound 3026], the Dominant [4] is given as “Yes (more dominant epitopes are defined by being recognized by 3 or more donors/different studies)”.

In the case of 553 (KTFPPTEPKKDKKK) [compound 553], the Restriction [5] is listed as “CD8”.

For 1076 (KVDGVVQQL) [compound 1076], the Restriction [1] is listed as “CD8”.

For 681 (YTGNYQCGHY) [compound 681], the Restriction [5] is given as “CD8”.

In the case of 543 (EVTPSGTWLTY) [compound 543], the Restriction [5] is given as “CD8”.

In the case of 1439 (VFVSNGTHW) [compound 1439], the Restriction [3] is listed as “CD8”.
